# What was measured:
# [1] = biological target: T1, TNAP (Homo sapiens, UniProt P05186); test: luminescent CDP-star-based TNAP assay, MLSMR screen (PubChem AID 518)
# T1 sequence (P05186 18-502 limits assumed): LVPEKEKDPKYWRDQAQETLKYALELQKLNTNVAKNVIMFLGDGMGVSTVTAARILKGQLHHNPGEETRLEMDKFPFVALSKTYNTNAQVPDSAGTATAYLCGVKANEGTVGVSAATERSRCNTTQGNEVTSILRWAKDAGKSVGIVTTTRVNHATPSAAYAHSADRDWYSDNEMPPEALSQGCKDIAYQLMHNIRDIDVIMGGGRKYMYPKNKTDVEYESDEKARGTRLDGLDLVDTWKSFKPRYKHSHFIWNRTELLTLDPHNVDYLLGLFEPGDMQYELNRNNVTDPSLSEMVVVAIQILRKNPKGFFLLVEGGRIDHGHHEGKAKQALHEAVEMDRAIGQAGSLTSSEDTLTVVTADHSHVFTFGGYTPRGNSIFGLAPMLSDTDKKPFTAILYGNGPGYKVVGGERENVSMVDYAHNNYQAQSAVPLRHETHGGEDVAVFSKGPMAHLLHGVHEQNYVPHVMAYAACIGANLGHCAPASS
# From the text: To address this issue, a TNAP assay was developed. This assay is based on the dephosphorylation of a CDP-star® alkaline phosphatase substrate (New England Biolabs, Inc.) designed to detect alkaline phosphatase in blotting techniques (FIG. 6). As with many chemiluminescent reactions, the dioxetane-based reaction represents a sequence of several steps. Dioxetane-phosphate is dephosphorylated by an alkaline phosphatase leading to the generation of an unstable product that decomposes to a stable product with concomitant light production. Once the steady-state of the overall reaction is achieved (in the current reaction it happens within the first 5 min), the luminescence signal output is stable over several hours. As an added bonus, the light intensity of the chemiluminescent reaction is directly proportional to the rate of the TNAP reaction; therefore, the activity of the enzyme can be reliably measured in real-time.
# In this table, the column corresponding to TNAP (luminescence) was calculated as (100−X)/100, where X is % inhibition. In some aspects, TNAP activation fact refers to the fold increase in TNAP activity. There are two tiers of data confirmation embedded in the data.
# [2] = biological target: T1, TNAP; test: optimized TNAP activation assay, CAPS buffer pH 9.8, CDP-Star luminescence; type: biochemical
# Protocol: The activity of TNAP (1/800) was measured in 50 mM CAPS, pH 9.8, containing 1 mM MgCl2, 20 uM ZnCl2 and varied concentrations of CDP-Star. The luminescence signal was obtained using 384-well white small-volume plates (Greiner 784075) on a PE Envision plate reader. Experimental data were analyzed using the Michaelis-Menten equation.
# The activity of TNAP (1/800) was measured in 50 mM CAPS, pH 9.8, containing 1 mM MgCl2, 20 μM ZnCl2 and 25 μM CDP-Star® in the presence of serially diluted DEA, pH adjusted to 9.8. The luminescence signal, obtained using 384-well white small-volume plate (Greiner 784075) on a PE Envision plate reader, was fitted to 4-parameter sigmoidal equation. The best-fit curve is shown as a solid line.
# The luminescent assay was further optimized to ensure its maximum sensitivity to compounds activating TNAP. […] This assay can provide a more accurate measure of phosphatase activity, as opposed to transphosphorylation, activity that might be more relevant to in vivo conditions. The previously utilized assay was performed in the presence DEA at a concentration of CDP-star equal to its Km value. However, the appropriate concentration of the components was needed for the new buffer. TNAP activity vs. its concentration was tested as a function of TNAP concentrations (FIG. 7).
# It was observed that TNAP activity was linearly dependent over an extended range of TNAP concentrations. A 1/800 concentration of TNAP was used for further work; this concentration is 1315-fold above the limit of detection of the assay. To ensure that substrate concentration is correctly adjusted in the new assay, TNAP activity was tested in the presence of varied CDP-star® concentrations (FIG. 8). It was decided to fix the concentration of CDP-star® at 25 uM (˜Km) to provide enough sensitivity even for compounds competitive with the CDP-star® substrate. In the next experiment, the activation of TNAP was tested with DEA (FIG. 9).
# 600 mM DEA (pH 9.8) was chosen as the positive control for TNAP activation screening. […]
# [3] = calculated as (100-X)/100, where X is % inhibition, luminescence
# [4] = TNAP 1/800, 50 mM CAPS pH 9.8, Michaelis-Menten
SMILES,"TNAP Activation Factor [1, 3]",also measured
NC1=NC(c2cn(-c3ccccc3)nc2-c2cccs2)n2c(nc3ccccc32)N1 (centres unmarked) [drawing 72],–,TNAP Activation Factor ([1]; Table 3): 1.5
O=C(CN1C(=O)CCC1=O)Nc1nc(-c2ccccn2)cs1 [Compound 9],2.0,–
OCCN1CCOCCN(CCO)CCN(CCO)CC1 [Compound 10],1.9,–
Cc1nn2c(O)cc(C(C)(C)C)nc2c1-c1ccccc1 [Compound 13],1.8,–
OCCCN1c2ccccc2Nc2nnc(-c3ccccc3)cc21 [Compound 25],1.5,–
"OCCCN1c2ccccc2Nc2nnc(-c3ccccc3)cc21 [drawing 70, 3-(3-phenylpyridazino[3,4-b]quinoxalin-5(10H)-yl)propan-1-ol]",–,TNAP Activation Factor ([1]; Table 3): 1.5
Cc1cc(C2N=C(N)Nc3nc4ccccc4n32)c(C)n1-c1ccccc1Cl (centres unmarked) [Compound 6],2.2,–
Oc1c(C(c2ccccn2)N2CCOCC2)ccc2cccnc12 (centres unmarked) [Compound 15],1.7,–
CCc1ccc(-c2nc(CN3CCC(C(=O)NCCN(CC)c4ccccc4)CC3)c(C)o2)cc1 [Compound 22],1.6,–
O=C(Nc1cccc(OC(F)(F)F)c1)c1ccc(Br)o1 [Compound 19],1.6,–
"Cc1nn2c(O)cc(C(C)(C)C)nc2c1-c1ccccc1 [drawing 67, 5-tert-butyl-2-methyl-3-phenylpyrazolo[1,5-a]pyrimidin-7-ol]",–,TNAP Activation Factor ([1]; Table 3): 1.8
"CC(C)n1c(NCc2nc3ccccc3n2C)nc2ccccc21 [drawing 45, 1-isopropyl-N-[(1-methyl-1H-benzo[d]imidazol-2-yl)methyl]-1H-benzo[d]imidazol-2-amine]",–,TNAP Activation Factor ([1]; Table 2): 2.0
Nc1[nH]nc2nc(NCc3ccccc3)c3c(c12)CCN(Cc1ccccc1)C3 [Compound 11],1.9,–
Clc1ccc(COC(Cn2ccnc2)c2ccc(Cl)cc2Cl)c(Cl)c1 (centres unmarked) [Compound 17],1.7,–
"c1nc(-c2[nH]nc3c2CCC3)n2nc(C3CCCCC3)sc12 [6-cyclohexyl-3-(2,4,5,6-tetrahydrocyclopenta[c]pyrazol-3-yl)-[1,2,4]triazole[3,4-b][1,3,4]thiadiazole]",–,TNAP Activation Factor ([1]; Table 3): 1.5
"Oc1c(C(c2ccccn2)N2CCOCC2)ccc2cccnc12 (centres unmarked) [drawing 68, 7-[morpholino(pyridin-2-yl)methyl]quinolin-8-ol]",–,TNAP Activation Factor ([1]; Table 3): 1.7
"Nc1[nH]nc2nc(NCc3ccccc3)c3c(c12)CCN(Cc1ccccc1)C3 [drawing 47, N^5,7-dibenzyl-6,7,8,9-tetrahydro-2H-pyrazolo[3,4-c][2,7]napythyridine-1,5-diamine]",–,TNAP Activation Factor ([1]; Table 2): 1.9
N=c1c2c(-c3ccccc3)c(-c3ccccc3)n(Cc3ccccc3)c2ncn1CCCn1ccnc1 [Compound 3],4.3,–
O=C(CN(Cc1ccco1)C(=O)CNS(=O)(=O)c1ccc(F)cc1)NCc1ccc(F)cc1 [Compound 16],1.7,–

SMILES,"TNAP Activation Factor [1, 3]",also measured
NC1=NC2(CCC(c3ccccc3)CC2)n2c(nc3ccccc32)N1 (centres unmarked) [Compound 20],1.6,–
C1CCC(c2nn3c(-c4[nH]nc5c4CCC5)nnc3s2)CC1 [Compound 26],1.5,–
Cc1cc(C2N=C(N)Nc3nc4ccccc4n32)c(C)n1-c1ccccc1Cl (centres unmarked) [drawing 66],–,TNAP Activation Factor ([1]; Table 3): 2.2
"O=C(CN1C(=O)CCC1=O)Nc1nc(-c2ccccn2)cs1 [drawing 29, 2-(2,5-dioxopyrrolidin-1-yl)-N-[4-(pyridine-2-yl)thiazol-2-yl]acetamide]",–,TNAP Activation Factor ([1]; Table 1): 2.0
COc1cccc(N(C(=O)c2cc[nH]n2)C2(C(=O)Nc3c(C)cccc3C)CCCCC2)c1 [Compound 23],1.6,–
CC(C)n1c(NCc2nc3ccccc3n2C)nc2ccccc21 [Compound 7],2.0,–
"OCCN(CCO)c1nc(N2CCCCC2)c2nc(N(CCO)CCO)nc(N3CCCCC3)c2n1 [2,2′,2″,2′″-[4,8-di(piperidin-1-yl)pyrimido[5,4-d]pyrimidine-2,6-diyl]bis(azanetriyl)tetraethanol]",–,TNAP Activation Factor ([1]; Table 3): 1.6
"OCCN1CCOCCN(CCO)CCN(CCO)CC1 [drawing 74, 2,2′,2″-(1-oxa-4,7,10-triazacyclododecane-4,7,10-triyl)ethanol]",–,TNAP Activation Factor ([1]; Table 3): 1.9
"OCCNCCO [DEA, diethanolamine]",–,"Maximal activation, higher activity than in the absence of DEA ([2]; TNAP 1/800, 25 μM CDP-Star, pH 9.8): 9.4 fold"
O=S(=O)(CCc1ncc(-c2ccccc2)o1)c1ccc2ccccc2c1 [Compound 21],1.6,–
COc1ccc(CCNC(=O)c2cc(-c3ccccc3O)[nH]n2)cc1OC [Compound 12],1.9,–
"O=C(CN(Cc1ccco1)C(=O)CNS(=O)(=O)c1ccc(F)cc1)NCc1ccc(F)cc1 [drawing 76, N-[2-(4-fluorobenzylamino)-2-oxoethyl]-2-(4-fluorphenylsulfonamido)-N-(furan-2-ylmethyl)acetamide]",–,TNAP Activation Factor ([1]; Table 3): 1.7
"COc1ccc(CCNC(=O)c2cc(-c3ccccc3O)[nH]n2)cc1OC [drawing 75, N-(3,4-dimethoxyphenethyl)-5-(2-hydroxyphenyl)-1H-pyrazole-3-carboxamide]",–,TNAP Activation Factor ([1]; Table 3): 1.9
OCCN(CCO)c1cc2c(N3CCCCC3)nc(N(CCO)CCO)nc2c(N2CCCCC2)n1 [Compound 18],1.6,–
"COC1(c2ccc(Cl)c(OP(=O)([O-])[O-])c2)OOC12C1CC3CC2CC(Cl)(C3)C1.[Na+].[Na+] (centres unmarked) [CDP-star, Disodium 2-chloro-5-(4-methoxyspiro{1,2-dioxetane-3,2′-(5′-chloro)-ricyclo[3.3.1.13,7]decan}-4-yl)-1-phenyl phosphate]",–,"Km [2, 4]: 21.9 ± 3.4 µM; Vmax [2, 4]: 10300±408 RLU"
"N=c1c2c(-c3ccccc3)c(-c3ccccc3)n(Cc3ccccc3)c2ncn1CCCn1ccnc1 [drawing 64, 3-[3-(1H-imidazol-1-yl)propyl]-7-benzyl-5,6-diphenyl-3H-pyrrolo[2,3-d]pyrimidin-4(7H)-imine]",–,TNAP Activation Factor ([1]; Table 3): 4.3
CCN(CC)c1ccc2cc(-c3nc4ccccc4n3C)c(=O)oc2c1 [Compound 4],2.8,–
NC1=NC(c2cn(-c3ccccc3)nc2-c2cccs2)n2c(nc3ccccc32)N1 (centres unmarked) [Compound 28],1.5,–

# — patent US20090053192A1, “TISSUE-NONSPECIFIC ALKALINE PHOSPHATASE (TNAP) ACTIVATORS AND USES THEREOF” (BURNHAM INSTITUTE FOR MEDICAL RESEARCH, priority 2007, published 2009)
